“Also recorded” adds a separate entry of the source.
Columns and labels:
Format in all cases: physicochemical
[1] = Dynamic vapor sorption (moisture uptake)
Protocol: Samples were analyzed using an Aquadyne DVS-2 gravimetric water sorption analyzer. The relative humidity was adjusted between 2-95% and the weight of the sample was continuously monitored and recorded.
[…]: β-GPA maleate (1:1) Form II, β-GPA fumarate (1:1), β-GPA maleate (2:1), β-GPA succinate (2:1) and β-GPA oxalate (1:1) were analyzed by DVS experiment followed by XRPD analysis of the sample at the end of the experiment.
Sample 2162-64-1 was analyzed by DVS in triplicate and the post DVS samples were characterized by XRPD to identify the form at the end of the experiment.

[2] = Solid form stability of salts in different solvents (slurry); conditions: 48 hours, room temperature
Protocol: Three salts were studied for solid form stability in water (disproportionation test), methanol, acetonitrile, and acetone:water (9:1) for 48 hours at room temperature.

[3] = Determination of bulk and tapped density; conditions: for Tapped density (ρT): Tap density analyzer
Protocol: The bulk density of β-GPA oxalate (Pattern 18 B), succinate (Pattern 15A), and fumarate (Pattern 7A) were determined by pouring in a known amount of salt (g) into a measuring cylinder. The volume (Vi) occupied by the salt was recorded and the bulk density (ρB) was determined using equation 1. ρB=g/Vi (1)
The tapped densities of the salts were determined using a Tap density analyzer. A known amount of salt was poured (g) into a measuring cylinder and the initial volume was recorded and tapped using a Tap density analyzer. The final volume (Vf) after tapping was recorded and the tapped density (ρT) was calculated by using equation 2. ρT=g/Vf (2)

[4] = Flowability measurement using Hanson Flodex unit; conditions: density and Hanson Flodex data
Text: A cylindrical vessel is secured to the stand and above that a funnel is also secured such that the bottom of the funnel is close to the vessel. A powder load of ≈50-60 g is then poured through the funnel into the middle of the cylinder. The lever device is pulled to open the hole in the disk quickly and without vibration. If a powder slowly flows through the small-diameter holes, leaving a cavity shaped like an upside-down, truncated cone, the test is considered positive. If a powder flocculates in bulk and falls abruptly, forming a cylindrical cavity, the test is considered negative. […] If the experiment is negative, the powder is tested again with a disk having a larger hole.

[5] = Experiments performed on 2:1 fumarate salt (Pattern 7C)
Protocol: To confirm the above hypothesis the following experiments (Table 24) were performed on the lyophilized sample (Pattern 7C): […]

[6] = Solid form stability of 1:1 β-GPA fumarate at various temperature/humidity conditions; conditions: for XRPD after stability study: a week
Protocol: The solid form stability of β-GPA fumarate was studied at various temperature/humidity conditions as listed in Table 22 for a week using saturated salt solution chambers. The samples were analyzed by XRPD after a week.

[7] = Gravimetric solubility of β-GPA fumarate in solvents; conditions: fifteen solvents and solvent mixtures at 15 and 45° C.
Protocol: Solubility of β-GPA fumarate was measured gravimetrically in fifteen different solvents and solvent mixtures at 15 and 45° C. About 100 mg of the compound was dispensed in ten volumes (1 mL) of the solvent/solvent mixture and slurried for 48 hours. Table 23 represents the solubility of β-GPA fumarate in different solvents. After 48 hours the vials were centrifuged. The supernatant was collected and left for slow evaporation under vacuum at 45° C. and solubility was determined. The solids obtained after centrifugation and evaporation were analyzed by XRPD.

[8] = Temperature cycling of 1:1 β-GPA fumarate
Protocol: The following (Table 25) experiments were performed to isolate possible polymorphic forms of 1:1 β-GPA fumarate.

[9] = Solid form stability of 1:1 β-GPA fumarate at various temperature/humidity conditions
[10] = 50 mg slurried in 0.2 mL of water

## N=C(N)NCCC(=O)O.O=C(O)C(=O)O [β-GPA oxalate (1:1)]
[1]; XRPD of post DVS sample
  Solid form after the DVS experiment (XRPD): retained their XRPD
[1]; XRPD of post DVS sample, listed as 1:1 oxalate salt
  Solid form after the DVS experiment (XRPD): no form change
[1]; XRPD of post DVS sample, listed as 1:1 β-GPA oxalate
  Solid form after the DVS experiment (XRPD): no form change
[2]
  Solid form stability (XRPD) after slurry in acetone:water (9:1): retain their XRPD pattern
  Solid form stability (XRPD) after slurry in acetonitrile: retain their XRPD pattern
  Solid form stability (XRPD) after slurry in methanol: retain their XRPD pattern
  Solid form stability (XRPD) after slurry in water (disproportionation test): retained their XRPD patterns
[2]; listed as 1:1 β-GPA oxalate
  Solid form stability (XRPD) after slurry in water (disproportionation test): retained their XRPD pattern
[3]
  Bulk density (ρB): 0.505 g/cc
  Tapped density (ρT): 0.623 g/cc
[4]
  Flow character (summary from the experimental data): fair

## N=C(N)NCCC(=O)O.N=C(N)NCCC(=O)O.O=C(O)/C=C/C(=O)O [2:1 fumarate salt]
[5]
  Stability of the crystalline form of the 2:1 salt: unstable
[5]; [10]
  Result: XRPD pattern that Pattern 7C converted to: Pattern 7A
  Time to conversion of Pattern 7C to Pattern 7A: (within 10 minutes
[5]; heated at 50° C. 5-10 minutes
  Result: XRPD pattern that Pattern 7C converted to: Pattern 7A
[5]; humidity chamber with RH >95% for 48 hours
  Result: XRPD pattern that Pattern 7C converted to: Pattern 7A
[5]; mixed with Pattern 7A, undisturbed at room temperature (48 hours)
  Result: XRPD pattern that Pattern 7C converted to: Pattern 7A
[5]; slurried in water, heated, or under high humidity conditions
  Form conversion of the 2:1 salt: converted to the 1:1 salt

## N=C(N)NCCC(=O)O.N=C(N)NCCC(=O)O.O=C(O)CCC(=O)O [β-GPA succinate (2:1)]
[1]; XRPD of post DVS sample
  Solid form after the DVS experiment (XRPD): retained their XRPD
[1]; XRPD of post DVS sample, listed as 2:1 succinate salt
  Solid form after the DVS experiment (XRPD): no form change
[1]; XRPD of post DVS sample, listed as 2:1 β-GPA succinate
  Solid form after the DVS experiment (XRPD): no form change
[2]
  Solid form stability (XRPD) after slurry in acetone:water (9:1): presence of β-GPA
  Solid form stability (XRPD) after slurry in acetonitrile: retain its original form
  Solid form stability (XRPD) after slurry in methanol: retain its original form
  Solid form stability (XRPD) after slurry in water (disproportionation test): showed two peaks from β-GPA after 6 hours
[2]; listed as 2:1 β-GPA succinate
  Solid form stability (XRPD) after slurry in acetonitrile: retain its XRPD pattern
  Solid form stability (XRPD) after slurry in methanol: retain its XRPD pattern
  Solid form stability (XRPD) after slurry in water (disproportionation test): started showing up peaks from β-GPA after 6 hours
[3]
  Bulk density (ρB): 0.405 g/cc
  Tapped density (ρT): 0.472 g/cc
[4]
  Flow character (summary from the experimental data): good

## N=C(N)NCCC(=O)O.O=C(O)/C=C/C(=O)O [β-GPA fumarate (1:1)]
[1]; XRPD of post DVS sample
  Solid form after the DVS experiment (XRPD): presence of two peaks from the β-GPA
[1]; XRPD of post DVS sample, listed as 1:1 fumarate
  Solid form after the DVS experiment (XRPD): presence of β-GPA peaks along with Pattern 7A
[1]; XRPD of post DVS sample, listed as 1:1 fumarate salt
  Solid form after the DVS experiment (XRPD): no form change
[1]; scaled-up sample 2162-64-1, DVS in triplicate
  Moisture uptake during DVS: less than 0.1%
[1]; scaled-up sample 2162-64-1, three DVS experiments
  Solid form after the DVS experiment (XRPD): identical to β-GPA fumarate (Pattern 7A); also recorded: did not exhibit any dissociation of the salt
[2]
  Solid form stability (XRPD) after slurry in acetone:water (9:1): retain their XRPD pattern
  Solid form stability (XRPD) after slurry in acetonitrile: retain their XRPD pattern
  Solid form stability (XRPD) after slurry in methanol: retain their XRPD pattern
  Solid form stability (XRPD) after slurry in water (disproportionation test): retained their XRPD patterns
[2]; listed as 1:1 β-GPA fumarate
  Solid form stability (XRPD) after slurry in water (disproportionation test): retained their XRPD pattern
[3]
  Bulk density (ρB): 0.576 g/cc
  Tapped density (ρT): 0.613 g/cc
[4]
  Flow character (summary from the experimental data): excellent
[6]; 20 ° C., 43% relative humidity
  XRPD after stability study: Pattern 7A
[6]; 20 ° C., 59% relative humidity
  XRPD after stability study: Pattern 7A
[6]; 20 ° C., 73% relative humidity
  XRPD after stability study: Pattern 7A
[6]; 20 ° C., >95% relative humidity
  XRPD after stability study: Pattern 7A
[6]; 40 ° C., 82% relative humidity
  XRPD after stability study: Pattern 7A
[6]; 60 ° C., 80% relative humidity
  XRPD after stability study: Pattern 7A
[6]; various temperature/RH conditions of Table 22, a week
  XRPD after stability study (summary): retained the original XRPD pattern (Pattern 7A)
[7]
  Solid form of precipitates after 48 hours slurries (XRPD): no form transformations
[8]; 50° C. 2 hours, RT, 50° C. 48 hours
  Result (XRPD) after temperature cycling: Pattern 7A
[8]; dry ice-acetone 30 minutes, RT
  Result (XRPD) after temperature cycling: Pattern 7A
[8]; heated to 150° C. and brought to room temperature, three cycles
  Result (XRPD) after temperature cycling: Pattern 7A
[8]; heated to 165° C., immediately dry ice/acetone cooling bath 15 min
  Result (XRPD) after temperature cycling: Pattern 7D
[8]; heating at 160-165° C. (2162-84-7)
  Appearance after heating: yellow to brownish solid
[8]; vacuum oven 130° C. 2 hours, RT, 130° C. 48 hours
  Result (XRPD) after temperature cycling: Pattern 7A
[9]; 60 ° C., 50% relative humidity, a week
  XRPD after stability study: Pattern 7A
[9]; sample 2162-64-1, RH>95% at room temperature (20° C.), 48 hours
  Solid form stability at high humidity (XRPD): retain its original XRPD pattern (Pattern 7A); also recorded: stable

## N=C(N)NCCC(=O)O.O=C(O)/C=C\C(=O)O [β-GPA maleate (1:1) Form II]
[1]; XRPD of post DVS sample
  Solid form after the DVS experiment (XRPD): no form change
[2]
  Solid form stability (XRPD) after slurry in acetone:water (9:1): matched with the original pattern of the salt (Pattern 6D) along with some additional peaks
  Solid form stability (XRPD) after slurry in acetonitrile: retain its XRPD pattern
  Solid form stability (XRPD) after slurry in methanol: retain its XRPD pattern
  Solid form stability (XRPD) after slurry in water (disproportionation test): retained their XRPD patterns

Source: patent publication US9827217B2, “Pharmaceutically acceptable salts of B-guanidinopropionic acid with improved properties and uses thereof” (Rgenix, Inc., priority 2015, dated 2017)
